Test results from the supplement of paper PMC13380429.

Tests used:
Conditions in all cases: 72 h
[1] = test system: Caco-2; experiment: cell viability relative to DMSO; higher = less toxic
[2] = test system: Calu-3; experiment: as above
[3] = test system: HepG2; experiment: as above
[4] = test system: U2OS; experiment: as above
[5] = test system: Vero E6; experiment: as above
[6] = test system: Caco-2; experiment: relative viability EC50 (midpoint between 100% and the lowest measured viability); higher = less toxic
[7] = test system: Calu-3; experiment: as above
[8] = test system: HepG2; experiment: as above
[9] = test system: U2OS; experiment: as above
[10] = test system: Vero E6; experiment: as above
[11] = test system: Caco-2; experiment: drug sensitivity score (DSS) for viability; higher = more toxic; extreme values may be limits of the assay
[12] = test system: Calu-3; experiment: as above
[13] = test system: HepG2; experiment: as above
[14] = test system: U2OS; experiment: as above
[15] = test system: Vero E6; experiment: as above

Row | Compound | cell viability ([1]; 1 nM) | cell viability ([1]; 10 nM) | cell viability ([1]; 100 nM) | cell viability ([1]; 1000 nM) | cell viability ([1]; 10000 nM) | cell viability ([2]; 1 nM) | cell viability ([2]; 10 nM) | cell viability ([2]; 100 nM) | cell viability ([2]; 1000 nM) | cell viability ([2]; 10000 nM) | cell viability ([3]; 1 nM) | cell viability ([3]; 10 nM) | cell viability ([3]; 100 nM) | cell viability ([3]; 1000 nM) | cell viability ([3]; 10000 nM) | cell viability ([4]; 1 nM) | cell viability ([4]; 10 nM) | cell viability ([4]; 100 nM) | cell viability ([4]; 1000 nM) | cell viability ([4]; 10000 nM) | cell viability ([5]; 1 nM) | cell viability ([5]; 10 nM) | cell viability ([5]; 100 nM) | cell viability ([5]; 1000 nM) | cell viability ([5]; 10000 nM) | relative viability EC50 [6] | relative viability EC50 [7] | relative viability EC50 [8] | relative viability EC50 [9] | relative viability EC50 [10] | drug sensitivity score [11] | drug sensitivity score [12] | drug sensitivity score [13] | drug sensitivity score [14] | drug sensitivity score [15]
1 | c1ccc2sc(N3CCN(Cc4ccc5c(c4)OCO5)CC3)nc2c1 [2-[1-(4-piperonyl)piperazinyl]benzothiazole] | 103% | 92.2% | 98.9% | 90.3% | 100% | 102% | 92.8% | 103% | 98.6% | 90.5% | 98.4% | 108% | 100% | 96% | 103% | 97.2% | 98% | 106% | 96.1% | 104% | 92% | 94.8% | 91.7% | 95.8% | 100% | > 10 µM | > 10 µM | > 10 µM | > 10 µM | > 10 µM | 0 | 0 | 0 | 0 | 0
2 | Cc1cc(O)c2c(c1)C(=O)c1cc(O)cc(O)c1C2=O [emodin] | 95.4% | 91% | 92.8% | 93.9% | 97% | 93.6% | 104% | 95% | 94.2% | 102% | 105% | 96.7% | 105% | 98.5% | 106% | 94.2% | 103% | 93.8% | 101% | 103% | 103% | 95% | 97.1% | 100% | 106% | > 10 µM | > 10 µM | > 10 µM | > 10 µM | > 10 µM | 0 | 0 | 0 | 0 | 0
3 | Oc1cc2c(cc1O)[C@@H]1c3ccc(O)c(O)c3OC[C@]1(O)C2 [hematoxylin] | 98.4% | 89.9% | 93% | 108% | 90% | 97.1% | 103% | 92.4% | 110% | 96.1% | 104% | 100% | 96.4% | 104% | 105% | 98.5% | 93.5% | 99.2% | 103% | 91.1% | 95.2% | 99.3% | 92.7% | 95.5% | 102% | > 10 µM | > 10 µM | > 10 µM | > 10 µM | > 10 µM | 0 | 0 | 0 | 0 | 0
4 | C[C@@H]1O[C@@H](OC[C@H]2O[C@@H](Oc3c(-c4ccc(O)c(O)c4)oc4cc(O)cc(O)c4c3=O)[C@H](O)[C@@H](O)[C@@H]2O)[C@H](O)[C@H](O)[C@H]1O [rutin] | 118% | 98.9% | 115% | 101% | 113% | 107% | 90.4% | 102% | 85.9% | 101% | 104% | 101% | 86% | 106% | 98.1% | 101% | 107% | 96.1% | 98.5% | 102% | 98.6% | 100% | 98.8% | 111% | 104% | > 10 µM | > 10 µM | > 10 µM | > 10 µM | > 10 µM | 0 | 0 | 0 | 0 | 0
5 | Cc1nn(C)c2c1C(c1ccc(C(F)(F)F)cc1)C(C#N)=C(N)O2 (stereo not given) [BQU57] | 94.3% | 93.5% | 95% | 97.1% | 89.2% | 98.7% | 104% | 98.7% | 108% | 104% | 109% | 97.9% | 103% | 99% | 102% | 98% | 101% | 98.8% | 100% | 102% | 104% | 104% | 103% | 101% | 99.7% | > 10 µM | > 10 µM | > 10 µM | > 10 µM | > 10 µM | 0 | 0 | 0 | 0 | 0
6 | NC(=O)c1ccccc1O [salicylamide] | 93.6% | 99% | 78.2% | 84.8% | 79.2% | 105% | 105% | 92% | 100% | 104% | 98.5% | 99.6% | 98.5% | 91.2% | 99.7% | 97.9% | 108% | 95.6% | 102% | 98.9% | 98% | 93.9% | 102% | 97.9% | 93% | > 10 µM | > 10 µM | > 10 µM | > 10 µM | > 10 µM | 5.7 | 0 | 0 | 0 | 0
7 | CCCCN(CCCC)CC(O)c1cc(Cl)cc2c1-c1ccc(Cl)cc1/C2=C/c1ccc(Cl)cc1 (stereo not given) [lumefantrine] | 99.8% | 92.6% | 101% | 94.5% | 89.5% | 82.9% | 102% | 90% | 102% | 94.4% | 98.9% | 113% | 107% | 108% | 84.2% | 101% | 101% | 103% | 103% | 95.2% | 102% | 102% | 102% | 105% | 91.2% | > 10 µM | > 10 µM | > 10 µM | > 10 µM | > 10 µM | 0 | 0 | 0.1 | 0 | 0
8 | CC(Oc1c(Cl)cccc1Cl)C1=NCCN1 (stereo not given) [lofexidine] | 100% | 106% | 101% | 93.8% | 95.6% | 99.3% | 108% | 87.6% | 103% | 94.6% | 90.7% | 105% | 104% | 90.7% | 100% | 103% | 106% | 100% | 100% | 99.6% | 101% | 101% | 95.7% | 103% | 103% | > 10 µM | > 10 µM | > 10 µM | > 10 µM | > 10 µM | 0 | 0 | 0 | 0 | 0
9 | CCc1cc2c(c(CC)n1)CCC(=O)N2Cc1ccc(-c2ccccc2-c2nnn[nH]2)cc1 [ZD-7155] | 97.5% | 86.9% | 91.5% | 96.8% | 109% | 111% | 99.8% | 97% | 95.3% | 94.7% | 86.1% | 97.8% | 91.1% | 99.6% | 102% | 96.2% | 97.4% | 102% | 99.3% | 101% | 92.5% | 96.2% | 91.6% | 97.1% | 102% | > 10 µM | > 10 µM | > 10 µM | > 10 µM | > 10 µM | 0 | 0 | 0 | 0 | 0
10 | CN(C)c1ccc(C(=O)NCCCCCCC(=O)NO)cc1 [M-344] | 101% | 99.4% | 103% | 75.6% | 1.5% | 101% | 93.7% | 77.2% | 55.3% | 13.6% | 106% | 92.8% | 80.2% | 37.9% | 0.3% | 99.2% | 94.6% | 93.9% | 47.2% | 1.1% | 97.5% | 101% | 92.1% | 56% | 0% | 1.56 µM | 0.581 µM | 0.504 µM | 0.891 µM | 1.14 µM | 9.2 | 11.8 | 14.4 | 11.7 | 10.6
11 | CS(=O)(=O)Nc1ccc(Cc2noc(-c3ccc4[nH]cc(CCN)c4c3)n2)cc1 | 97.9% | 101% | 105% | 98.5% | 104% | 104% | 101% | 102% | 90.2% | 103% | 93.8% | 116% | 91.2% | 95.8% | 98% | 98.6% | 96.9% | 102% | 99.1% | 98.8% | 98.3% | 105% | 100% | 101% | 106% | > 10 µM | > 10 µM | > 10 µM | > 10 µM | > 10 µM | 0 | 0 | 0 | 0 | 0
12 | C[C@@H](O[C@H]1OCCN(Cc2n[nH]c(=O)[nH]2)[C@H]1c1ccc(F)cc1)c1cc(C(F)(F)F)cc(C(F)(F)F)c1 [aprepitant] | 100% | 107% | 100% | 105% | 89.2% | 90.9% | 105% | 103% | 97.7% | 97.1% | 102% | 103% | 106% | 109% | 95.3% | 99.5% | 103% | 95.3% | 102% | 88.4% | 97.4% | 104% | 98.8% | 103% | 103% | > 10 µM | > 10 µM | > 10 µM | > 10 µM | > 10 µM | 0 | 0 | 0 | 0 | 0
13 | CC(=O)OCC(=O)[C@@]1(O)CC[C@H]2[C@@H]3CCC4=CC(=O)CC[C@]4(C)[C@@]3(F)[C@@H](O)C[C@@]21C [FLUDROCORTISONE ACETATE] | 102% | 102% | 99.5% | 92.8% | 101% | 97.7% | 94.4% | 93% | 85.1% | 104% | 104% | 95.9% | 104% | 87.5% | 95.3% | 98.1% | 101% | 95.8% | 94.7% | 93.1% | 97.7% | 99.8% | 96.5% | 96.5% | 97.7% | > 10 µM | > 10 µM | > 10 µM | > 10 µM | > 10 µM | 0 | 0 | 0.6 | 0 | 0
14 | Cc1ccc2c(=O)c3ccccc3n(CCCN)c2c1C | 100% | 92.8% | 91.6% | 72.7% | 28.5% | 97.8% | 102% | 104% | 81.3% | 20.6% | 99.3% | 94.2% | 102% | 38.2% | 5.4% | 100% | 102% | 96.9% | 103% | 1.3% | 96.2% | 99.9% | 91.7% | 57% | 3.7% | 1.32 µM | 1.6 µM | 0.777 µM | 3.33 µM | 1.12 µM | 7 | 7.3 | 12.4 | 5.3 | 10.3
